Source: PMC4505863 (ACS Chemical Neuroscience, 2014)

Experiments:
5-HT2A = conditions: cited from earlier work
5-HT2A receptor [1] = target: T1, 5-HT2A receptor (Homo sapiens, UniProt P28223); assay: h5-HT2A affinity, antagonist radioligand [3H]ketanserin; format: binding
5-HT2A receptor [2] = target: T1, 5-HT2A receptor; assay: h5-HT2A affinity, agonist radioligand [125I]DOI; format: binding
human 5-HT2C receptor [3] = target: T2, human 5-HT2C receptor (Homo sapiens, UniProt P28335); assay: h5-HT2C affinity, antagonist radioligand [3H]mesulergine; format: binding
T2 sequence (P28335 33-458): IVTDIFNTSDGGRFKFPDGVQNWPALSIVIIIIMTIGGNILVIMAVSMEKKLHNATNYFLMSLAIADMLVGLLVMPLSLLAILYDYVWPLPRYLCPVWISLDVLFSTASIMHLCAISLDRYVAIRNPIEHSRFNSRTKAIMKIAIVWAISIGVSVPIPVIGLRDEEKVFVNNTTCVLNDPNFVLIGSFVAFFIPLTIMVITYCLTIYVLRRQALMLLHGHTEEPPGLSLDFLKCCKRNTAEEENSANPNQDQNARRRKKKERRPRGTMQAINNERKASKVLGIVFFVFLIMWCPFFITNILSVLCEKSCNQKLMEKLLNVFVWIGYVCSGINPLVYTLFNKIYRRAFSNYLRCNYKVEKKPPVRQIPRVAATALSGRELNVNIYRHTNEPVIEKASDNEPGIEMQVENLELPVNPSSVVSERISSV

human 5-HT2C receptor [4] = target: T2, human 5-HT2C receptor; assay: h5-HT2C affinity, agonist radioligand [125I]DOI; format: binding
5-HT2B = 5-HT2B (Homo sapiens, UniProt P41595); assay: PDSP screening affinity 5-HT2B; format: binding
5-HT1A = target: T3, 5-HT1A (Homo sapiens, UniProt P08908); assay: PDSP screening affinity 5-HT1A; format: binding; conditions: 5-HT1A affinity
T3 sequence (P08908 1-422): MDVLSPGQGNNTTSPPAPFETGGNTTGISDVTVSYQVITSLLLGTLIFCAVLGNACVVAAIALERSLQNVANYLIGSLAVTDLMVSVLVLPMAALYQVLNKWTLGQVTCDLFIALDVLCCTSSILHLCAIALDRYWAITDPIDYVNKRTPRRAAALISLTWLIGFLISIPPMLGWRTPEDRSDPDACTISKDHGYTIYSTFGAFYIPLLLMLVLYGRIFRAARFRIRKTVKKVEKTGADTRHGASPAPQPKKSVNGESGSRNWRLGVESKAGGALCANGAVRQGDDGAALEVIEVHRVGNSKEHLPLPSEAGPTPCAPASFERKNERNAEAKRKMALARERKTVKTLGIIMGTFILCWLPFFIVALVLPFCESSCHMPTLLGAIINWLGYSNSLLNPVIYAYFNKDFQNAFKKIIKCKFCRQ

5-HT1B = 5-HT1B (Homo sapiens, UniProt P28222); assay: PDSP screening affinity 5-HT1B; format: binding
5-HT1D = 5-HT1D (Homo sapiens, UniProt P28221); assay: PDSP screening affinity 5-HT1D; format: binding
5-ht1e = 5-ht1e (Homo sapiens, UniProt P28566); assay: PDSP screening affinity 5-ht1e; format: binding
5-HT3 = target: T4, 5-HT3 (Homo sapiens, UniProt P46098); assay: PDSP screening affinity 5-HT3; format: binding
T4 sequence (P46098 24-478): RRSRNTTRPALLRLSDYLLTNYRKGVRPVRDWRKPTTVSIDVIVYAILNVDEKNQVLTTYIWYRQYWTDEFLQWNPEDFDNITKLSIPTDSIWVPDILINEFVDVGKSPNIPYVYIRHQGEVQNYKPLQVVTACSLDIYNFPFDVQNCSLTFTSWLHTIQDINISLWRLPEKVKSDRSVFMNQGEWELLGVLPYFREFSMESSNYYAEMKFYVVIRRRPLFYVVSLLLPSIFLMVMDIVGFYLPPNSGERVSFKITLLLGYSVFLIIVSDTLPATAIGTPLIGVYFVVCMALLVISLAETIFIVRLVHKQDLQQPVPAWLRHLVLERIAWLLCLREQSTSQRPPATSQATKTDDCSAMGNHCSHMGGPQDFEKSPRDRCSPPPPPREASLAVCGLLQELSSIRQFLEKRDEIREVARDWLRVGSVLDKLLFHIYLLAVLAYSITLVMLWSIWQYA

5-ht5a = 5-ht5a (Homo sapiens, UniProt P47898); assay: PDSP screening affinity 5-ht5a; format: binding; conditions: 5-ht5a affinity
5-HT6 = 5-HT6 (Homo sapiens, UniProt P50406); assay: PDSP screening affinity 5-HT6; format: binding; conditions: 5-HT6 affinity
5-HT7 = 5-HT7 (Homo sapiens, UniProt P34969); assay: PDSP screening affinity 5-HT7; format: binding; conditions: 5-HT7 affinity
r5-HT2A = r5-HT2A (Rattus norvegicus, UniProt P14842); assay: Ca2+ mobilization assay; format: cell-based
h5-HT2A = h5-HT2A (Homo sapiens, UniProt P28223); assay: Ca2+ mobilization assay; format: cell-based
h5-HT2B = h5-HT2B (Homo sapiens, UniProt P41595); assay: Ca2+ mobilization assay; format: cell-based
r5-HT2C = target: T5, r5-HT2C (Rattus norvegicus, UniProt P08909); assay: Ca2+ mobilization assay; format: cell-based
T5 sequence (P08909 33-460): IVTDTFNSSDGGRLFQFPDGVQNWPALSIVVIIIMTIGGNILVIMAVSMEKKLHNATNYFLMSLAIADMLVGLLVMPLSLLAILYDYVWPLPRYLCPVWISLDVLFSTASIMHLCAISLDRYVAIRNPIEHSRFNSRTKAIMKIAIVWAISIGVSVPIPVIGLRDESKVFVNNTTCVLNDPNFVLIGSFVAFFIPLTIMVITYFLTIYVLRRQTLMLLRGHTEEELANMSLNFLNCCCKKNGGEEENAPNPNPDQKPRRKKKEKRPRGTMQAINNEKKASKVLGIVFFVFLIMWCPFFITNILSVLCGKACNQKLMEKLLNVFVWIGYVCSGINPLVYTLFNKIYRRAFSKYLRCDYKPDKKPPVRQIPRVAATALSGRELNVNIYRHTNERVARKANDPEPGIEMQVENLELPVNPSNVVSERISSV

h5-HT2C = target: T6, h5-HT2C (Homo sapiens, UniProt P28335); assay: Ca2+ mobilization assay; format: cell-based
T6 sequence (P28335 33-458): T2 sequence (P28335 33-458)

5-HT2A receptor [5] = target: T1, 5-HT2A receptor; conditions: cited from earlier work
5-HT2A receptor [6] = target: T1, 5-HT2A receptor; conditions: authentic 4-bromo compound; cited from earlier work
Male C57BL/6J mice = assay: Mouse head twitch response; conditions: SC, doses up to 30 mg/kg
rat stomach fundus = conditions: cited from earlier work
[7] = system: isolated guinea pig uterus; conditions: cited from earlier work
[8] = system: isolated guinea pig taenia cecum; conditions: cited from earlier work
[9] = system: 5-HT2 type receptors in rabbit aorta; conditions: cited from earlier work
[10] = system: 5-HT2 type receptors in rat jugular vein; conditions: cited from earlier work

T1 sequence (P28223 whole entry): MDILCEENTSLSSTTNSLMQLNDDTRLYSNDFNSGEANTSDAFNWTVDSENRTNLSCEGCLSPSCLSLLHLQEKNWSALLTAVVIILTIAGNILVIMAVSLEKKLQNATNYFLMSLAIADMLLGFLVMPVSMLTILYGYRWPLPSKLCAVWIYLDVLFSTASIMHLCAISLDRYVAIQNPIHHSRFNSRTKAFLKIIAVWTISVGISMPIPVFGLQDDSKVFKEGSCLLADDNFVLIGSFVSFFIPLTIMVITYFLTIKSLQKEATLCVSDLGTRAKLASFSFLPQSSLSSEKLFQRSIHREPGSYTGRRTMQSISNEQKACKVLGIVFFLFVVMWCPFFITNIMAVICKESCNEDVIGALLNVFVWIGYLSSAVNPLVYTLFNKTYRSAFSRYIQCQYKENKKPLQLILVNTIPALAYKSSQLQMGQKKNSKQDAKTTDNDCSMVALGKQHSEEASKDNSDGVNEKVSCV
Sequence of h5-HT2A (P28223 whole entry): as above
Sequence of r5-HT2A (P14842 whole entry): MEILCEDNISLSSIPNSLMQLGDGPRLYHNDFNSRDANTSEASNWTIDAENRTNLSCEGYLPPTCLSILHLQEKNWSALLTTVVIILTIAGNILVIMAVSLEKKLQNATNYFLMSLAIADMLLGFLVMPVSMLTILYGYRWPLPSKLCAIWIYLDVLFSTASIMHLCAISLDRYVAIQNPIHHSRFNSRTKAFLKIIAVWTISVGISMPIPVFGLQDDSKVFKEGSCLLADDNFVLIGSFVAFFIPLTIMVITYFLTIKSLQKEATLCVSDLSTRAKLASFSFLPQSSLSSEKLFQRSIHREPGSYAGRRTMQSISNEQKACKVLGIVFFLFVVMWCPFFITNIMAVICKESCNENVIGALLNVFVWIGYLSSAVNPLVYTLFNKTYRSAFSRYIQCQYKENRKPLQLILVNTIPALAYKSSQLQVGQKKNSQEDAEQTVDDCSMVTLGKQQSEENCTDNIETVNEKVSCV
Sequence of 5-HT1B (P28222 whole entry): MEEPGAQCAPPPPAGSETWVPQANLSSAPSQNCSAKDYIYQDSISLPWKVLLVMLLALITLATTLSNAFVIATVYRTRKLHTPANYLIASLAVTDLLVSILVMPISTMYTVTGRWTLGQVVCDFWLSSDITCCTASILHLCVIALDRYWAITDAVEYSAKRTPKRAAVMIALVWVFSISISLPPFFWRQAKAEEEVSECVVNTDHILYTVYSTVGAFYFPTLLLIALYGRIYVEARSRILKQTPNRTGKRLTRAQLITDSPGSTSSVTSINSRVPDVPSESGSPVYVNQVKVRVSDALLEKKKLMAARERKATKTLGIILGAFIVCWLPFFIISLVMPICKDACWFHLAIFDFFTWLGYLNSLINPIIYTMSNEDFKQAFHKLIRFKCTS
Sequence of h5-HT2B (P41595 whole entry): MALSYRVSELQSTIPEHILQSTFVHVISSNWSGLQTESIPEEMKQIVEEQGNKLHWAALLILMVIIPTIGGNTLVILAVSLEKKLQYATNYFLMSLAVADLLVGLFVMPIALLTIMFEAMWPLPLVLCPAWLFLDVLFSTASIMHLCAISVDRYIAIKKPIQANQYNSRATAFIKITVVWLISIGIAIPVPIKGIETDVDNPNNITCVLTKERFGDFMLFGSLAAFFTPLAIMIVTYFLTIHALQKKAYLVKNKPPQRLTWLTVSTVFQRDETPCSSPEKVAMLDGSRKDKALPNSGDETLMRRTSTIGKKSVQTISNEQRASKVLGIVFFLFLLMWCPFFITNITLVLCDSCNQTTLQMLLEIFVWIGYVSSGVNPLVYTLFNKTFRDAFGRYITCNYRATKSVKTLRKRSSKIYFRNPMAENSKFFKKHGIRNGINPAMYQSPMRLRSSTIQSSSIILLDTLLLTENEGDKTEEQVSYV
Sequence of 5-HT2B (P41595 whole entry): as above
Sequence of 5-HT6 (P50406 whole entry): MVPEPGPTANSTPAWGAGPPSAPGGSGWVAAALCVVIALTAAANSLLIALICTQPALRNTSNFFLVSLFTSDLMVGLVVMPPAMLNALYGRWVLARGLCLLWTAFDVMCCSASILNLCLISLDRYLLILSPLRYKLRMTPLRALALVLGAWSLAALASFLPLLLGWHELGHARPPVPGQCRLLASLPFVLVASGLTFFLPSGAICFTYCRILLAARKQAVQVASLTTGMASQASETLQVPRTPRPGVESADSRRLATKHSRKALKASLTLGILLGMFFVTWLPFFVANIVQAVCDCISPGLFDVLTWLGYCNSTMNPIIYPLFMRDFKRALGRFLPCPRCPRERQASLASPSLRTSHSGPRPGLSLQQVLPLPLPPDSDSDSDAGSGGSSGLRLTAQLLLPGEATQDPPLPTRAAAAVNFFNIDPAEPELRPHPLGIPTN
Sequence of 5-ht5a (P47898 whole entry): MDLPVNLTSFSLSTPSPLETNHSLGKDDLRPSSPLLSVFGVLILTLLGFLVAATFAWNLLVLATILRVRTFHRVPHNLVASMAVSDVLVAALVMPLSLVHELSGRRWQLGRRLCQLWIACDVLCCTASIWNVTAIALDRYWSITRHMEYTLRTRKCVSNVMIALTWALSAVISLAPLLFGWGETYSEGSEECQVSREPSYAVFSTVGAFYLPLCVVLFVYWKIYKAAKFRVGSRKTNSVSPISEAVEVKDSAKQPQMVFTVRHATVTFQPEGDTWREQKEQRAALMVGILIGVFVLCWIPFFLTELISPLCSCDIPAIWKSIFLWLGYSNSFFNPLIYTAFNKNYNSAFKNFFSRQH
Sequence of 5-ht1e (P28566 whole entry): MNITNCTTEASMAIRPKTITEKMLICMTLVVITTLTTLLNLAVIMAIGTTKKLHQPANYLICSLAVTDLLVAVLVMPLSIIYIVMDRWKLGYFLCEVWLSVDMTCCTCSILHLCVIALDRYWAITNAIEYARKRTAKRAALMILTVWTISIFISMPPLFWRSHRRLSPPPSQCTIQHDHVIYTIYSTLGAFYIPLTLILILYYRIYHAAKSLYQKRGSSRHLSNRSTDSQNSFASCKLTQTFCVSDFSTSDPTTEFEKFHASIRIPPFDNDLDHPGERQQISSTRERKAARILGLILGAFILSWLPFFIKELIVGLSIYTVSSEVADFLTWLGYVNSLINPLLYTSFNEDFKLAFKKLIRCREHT
Sequence of 5-HT7 (P34969 whole entry): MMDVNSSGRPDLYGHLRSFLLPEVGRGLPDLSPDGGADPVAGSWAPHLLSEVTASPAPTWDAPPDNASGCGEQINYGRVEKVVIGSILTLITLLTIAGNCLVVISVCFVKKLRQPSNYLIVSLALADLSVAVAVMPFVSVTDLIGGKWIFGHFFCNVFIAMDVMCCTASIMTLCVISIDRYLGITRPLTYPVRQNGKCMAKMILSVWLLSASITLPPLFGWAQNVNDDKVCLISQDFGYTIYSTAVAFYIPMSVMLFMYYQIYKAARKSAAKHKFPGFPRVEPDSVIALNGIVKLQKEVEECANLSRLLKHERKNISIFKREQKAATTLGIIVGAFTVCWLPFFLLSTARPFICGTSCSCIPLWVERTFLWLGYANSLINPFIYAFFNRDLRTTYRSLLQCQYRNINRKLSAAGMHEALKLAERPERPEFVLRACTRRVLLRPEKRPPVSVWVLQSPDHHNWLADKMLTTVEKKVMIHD
Sequence of 5-HT1D (P28221 whole entry): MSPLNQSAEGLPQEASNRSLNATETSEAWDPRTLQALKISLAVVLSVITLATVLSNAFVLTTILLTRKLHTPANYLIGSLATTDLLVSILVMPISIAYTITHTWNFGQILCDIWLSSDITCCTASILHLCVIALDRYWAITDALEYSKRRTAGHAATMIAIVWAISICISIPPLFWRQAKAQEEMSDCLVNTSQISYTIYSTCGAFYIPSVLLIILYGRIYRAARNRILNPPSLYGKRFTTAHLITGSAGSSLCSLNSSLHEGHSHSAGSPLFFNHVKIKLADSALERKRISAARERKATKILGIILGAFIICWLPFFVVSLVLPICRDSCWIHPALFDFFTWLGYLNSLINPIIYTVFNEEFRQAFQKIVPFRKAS

For `COc1cc(CCNCc2ccccc2O)c(OC)cc1C#N` [Compound 25CN-NBOH, N-(2-hydroxybenzyl)-2,5-dimethoxy-4-cyanophenethylamine], the “selectivity for 5-HT2A over 5-HT2C” value (5-HT2A) is given as 100 fold.

`COc1ccc2[nH]cc(CCNCc3ccc(Br)cc3)c2c1` [Compound 5f, N-(4-Bromobenzyl)-2-(5-methoxy-1H-indol-3-yl)ethan-1-amine] gave a Ki (5-HT2A receptor [1]) of 427 nM, a Ki (5-HT2A receptor [2]) of 11.2 nM and a Ki (human 5-HT2C receptor [3]) of 251 nM. For the same compound, the Ki (human 5-HT2C receptor [4]) was 28.8 nM, the Ki (5-HT2B; 5-HT2B affinity) was 150 nM and the Ki (5-HT2B; 5-HT2B pKi ± SEM) was 148 nM. It also gave a Ki (5-HT1A) of 78 nM, a Ki (5-HT1B; 5-HT1B affinity) of 4370 nM and a Ki (5-HT1B; 5-HT1B pKi ± SEM) of 4470 nM. For the same compound, the Ki (5-HT1D) was 271 nM, the Ki (5-ht1e) was > 10000 nM and the Ki (5-HT3) was > 10000 nM. For the same compound, the Ki (5-ht5a) was 1030 nM, the Ki (5-HT6) was 566 nM and the Ki (5-HT7) was 358 nM. For the same compound, the EC50 (r5-HT2A; r5-HT2A EC50, Ca2+ mobilization) was 1500 nM, the Emax (r5-HT2A; read-out: r5-HT2A Emax, percentage of the maximum response to 5-HT) was 77.6 ± 2.4% and the EC50 (h5-HT2A) was 430 nM. The Emax (h5-HT2A; HEK293, read-out: h5-HT2A Emax, percentage of the maximum response to 5-HT) was 90.3 ± 1.2%, the Emax (h5-HT2B; HEK293, read-out: h5-HT2B Emax) was 90 ± 2% and the EC50 (h5-HT2B; h5-HT2B EC50, Ca2+ mobilization) was 290 nM. The EC50 (r5-HT2C; r5-HT2C EC50, Ca2+ mobilization) was 204 nM, the Emax (r5-HT2C; read-out: r5-HT2C Emax) was 108 ± 2% and the Emax (h5-HT2C; HEK293, read-out: h5HT2C Emax) was 83 ± 7%. For the same compound, the EC50 (h5-HT2C; h5HT2C EC50, Ca2+ mobilization) was 529 nM, the “selectivity for 5-HT2A over 5-HT2C receptors” value (5-HT2A receptor [5]; 5-HT2A agonist radioligand, 5-HT2C antagonist radioligand) was 1000 fold and the “affinity for the 5-HT2A receptor” value (5-HT2A receptor [6]) was “relatively low affinity”. The “activity in the HTR assay (active / inactive)” value (Male C57BL/6J mice) was “None of the phenethylamines or tryptamines with 4-substituted N-benzyl groups, 4b, 4e, 5c, or 5f, was active”.

For `COc1ccc2[nH]cc(CCNCc3ccccc3)c2c1` [N-benzyl-5-methoxytryptamine], the “affinity relative to the parent primary amine” value (5-HT2A receptor [5]; receptor not given) is listed as “essentially no effect on affinity”, the “effect on serotonin-induced contraction” value (rat stomach fundus) is listed as “antagonist” and the “effect on serotonin-induced contraction” value [7] is listed as “antagonist”. For the same compound, the “effect on serotonin-induced contraction” value [8] was “antagonist”, the “agonist activity at 5-HT2 type receptors” value [9] was “weak partial agonist activity” and the “agonist activity at 5-HT2 type receptors” value [10] was “weak partial agonist activity”.
